Several values for one entry are separate records, joined by “and”; a condition that tells them apart may be missing. Equal entries are not always repeated. Toxic doses and inconclusive results are not listed.
Tested on: P388 leukemia ip, CD2F1 mice, survival T/C
Assay: NCI In Vivo Anticancer Drug Screen. Data for tumor model P388 Leukemia (intraperitoneal) in CD2F1 (CDF1) mice
Conditions: endpoint: median survival time, higher = longer survival
How it was run: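 Mice carrying the transplanted tumor received test compound or vehicle. Survival was recorded in each group, and the value is the treated-group measurement divided by that of the vehicle-treated control group.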

[1] = dose: 100.0 mg/kg/injection, schedule: Q04DX003 (ip), vehicle: saline with Tween-80
[2] = dose: 200.0 mg/kg/injection, schedule: Q04DX003 (ip), vehicle: saline with Tween-80
[3] = dose: 50.0 mg/kg/injection, schedule: Q01DX005 (ip), vehicle: saline with Tween-80
[4] = dose: 100.0 mg/kg/injection, schedule: Q01DX005 (ip), vehicle: saline with Tween-80
[5] = dose: 200.0 mg/kg/injection, schedule: Q01DX005 (ip), vehicle: saline with Tween-80
[6] = dose: 100.0 mg/kg/injection, schedule: Q01DX009 (ip), vehicle: saline with Tween-80
[7] = dose: 200.0 mg/kg/injection, schedule: Q01DX009 (ip), vehicle: saline with Tween-80
[8] = dose: 50.0 mg/kg/injection, schedule: Q01DX009 (ip), vehicle: saline
[9] = dose: 100.0 mg/kg/injection, schedule: Q01DX009 (ip), vehicle: saline
[10] = dose: 200.0 mg/kg/injection, schedule: Q01DX009 (ip), vehicle: saline
[11] = dose: 60.0 mg/kg/injection, schedule: Q01DX005 (ip), vehicle: saline with Tween-80
[12] = dose: 120.0 mg/kg/injection, schedule: Q01DX005 (ip), vehicle: saline with Tween-80
[13] = dose: 100.0 mg/kg/injection, schedule: Q01DX009 (ip), vehicle: other
[14] = dose: 200.0 mg/kg/injection, schedule: Q01DX009 (ip), vehicle: other
[15] = dose: 400.0 mg/kg/injection, schedule: Q01DX009 (ip), vehicle: other
[16] = dose: 50.0 mg/kg/injection, schedule: Q01DX009 (ip), vehicle: Klucel (hydroxypropylcellulose) (HPC)
[17] = dose: 100.0 mg/kg/injection, schedule: Q01DX009 (ip), vehicle: Klucel (hydroxypropylcellulose) (HPC)
[18] = dose: 200.0 mg/kg/injection, schedule: Q01DX009 (ip), vehicle: Klucel (hydroxypropylcellulose) (HPC)
[19] = dose: 50.0 mg/kg/injection, schedule: Q01DX009 (ip), vehicle: saline with Tween-80

Structure (SMILES): CCC1(c2ccc(-c3ccccc3)cc2)OC(OC(=O)NC)C=CC1=O (stereo unspecified)
- T/C (dose: 6.25 mg/kg/injection, schedule: Q01DX009 (ip), vehicle: Klucel (hydroxypropylcellulose) (HPC)): 98 % of control

Structure (SMILES): Nc1nc(N)c2cc(NCc3ccccc3Cl)ccc2n1
- T/C (dose: 6.25 mg/kg/injection, schedule: Q01DX001 (ip), vehicle: saline with Tween-80): 100 % of control
- T/C (dose: 12.5 mg/kg/injection, schedule: Q01DX001 (ip), vehicle: saline with Tween-80): 112 % of control
- T/C (dose: 16.5 mg/kg/injection, schedule: Q01DX009 (ip), vehicle: saline with Tween-80): 104 % of control
- T/C (dose: 25.0 mg/kg/injection, schedule: Q01DX001 (ip), vehicle: saline with Tween-80): 104 % of control

Structure (SMILES): NC(=S)Nc1ccc(Cc2ccc(NC(N)=S)cc2)cc1
- T/C (dose: 25.0 mg/kg/injection, schedule: Q04DX003 (ip), vehicle: saline with Tween-80): 101 % of control
- T/C (dose: 50.0 mg/kg/injection, schedule: Q04DX003 (ip), vehicle: saline with Tween-80): 101 % of control
- T/C [1]: 100 % of control
- T/C [2]: 99 % of control

Structure (SMILES): CC(O)CCc1nc2ccccc2[nH]1 (stereo unspecified)
- T/C [3]: 95 % of control
- T/C [4]: 100 % of control
- T/C [5]: 95 % of control

Structure (SMILES): Oc1cc(-c2ccc(Cl)cc2)c(O)cc1CN1CCOCC1
- T/C (dose: 100.0 mg/kg/injection, schedule: Q04DX002 (ip), vehicle: saline with Tween-80): 92 % of control
- T/C (dose: 200.0 mg/kg/injection, schedule: Q04DX002 (ip), vehicle: saline with Tween-80): 91 % of control
- T/C (dose: 400.0 mg/kg/injection, schedule: Q04DX002 (ip), vehicle: saline with Tween-80): 92 % of control

Structure (SMILES): COC1=C(Br)C(O)C2(C=C1Br)CC(C(=O)NCC(O)COc1c(Br)cc(C(O)CNC(=O)C3=NOC4(C=C(Br)C(OC)=C(Br)C4O)C3)cc1Br)=NO2 (stereo unspecified)
- T/C (dose: 25.0 mg/kg/injection, schedule: Q01DX009 (ip), vehicle: saline + Tween-80 + alcohol): 110 % of control
- T/C (dose: 50.0 mg/kg/injection, schedule: Q01DX009 (ip), vehicle: saline + Tween-80 + alcohol): 112 % of control and 92 % of control
- T/C (dose: 100.0 mg/kg/injection, schedule: Q01DX009 (ip), vehicle: saline + Tween-80 + alcohol): 112 % of control and 92 % of control
- T/C (dose: 200.0 mg/kg/injection, schedule: Q01DX009 (ip), vehicle: saline + Tween-80 + alcohol): 102 % of control

Structure (SMILES): CCN(CC)c1ccc(/C=C2/C=Cc3ccccc32)cc1
- T/C [6]: 105 % of control
- T/C [7]: 100 % of control
- T/C (dose: 400.0 mg/kg/injection, schedule: Q01DX009 (ip), vehicle: saline with Tween-80): 95 % of control

Structure (SMILES): CCOC(=O)CNC(=O)Nc1c(C)n(C)n(-c2ccccc2)c1=O
- T/C [8]: 103 % of control
- T/C [9]: 100 % of control
- T/C [10]: 97 % of control

Structure (SMILES): CC1(C)C(C=O)=CCC1CC(N)=O (stereo unspecified)
- T/C [11]: 117 % of control
- T/C [12]: 111 % of control

Structure (SMILES): COc1ccc(OC)c(CC(C(C)=O)C(C)=O)c1
- T/C (dose: 25.0 mg/kg/injection, schedule: Q01DX009 (ip), vehicle: other): 100 % of control
- T/C (dose: 50.0 mg/kg/injection, schedule: Q01DX009 (ip), vehicle: other): 105 % of control
- T/C [13]: 106 % of control
- T/C [14]: 108 % of control
- T/C [15]: 116 % of control

Structure (SMILES): C[Si](C)(C)C#CC(OS(=O)(=O)C(F)(F)F)=C(c1ccccc1)c1ccccc1
- T/C [3]: 98 % of control
- T/C [4]: 99 % of control
- T/C [5]: 92 % of control

Structure (SMILES): C=CC[P+](C)(c1ccccc1)c1ccccc1
- T/C (dose: 0.78 mg/kg/injection, schedule: Q01DX009 (ip), vehicle: saline): 94 % of control
- T/C (dose: 1.56 mg/kg/injection, schedule: Q01DX009 (ip), vehicle: saline): 97 % of control
- T/C (dose: 3.13 mg/kg/injection, schedule: Q01DX009 (ip), vehicle: saline): 106 % of control

Structure (SMILES): CCN(CC)CCNc1c(C)cccc1Cl
- T/C [11]: 100 % of control
- T/C [12]: 100 % of control

Structure (SMILES): N#Cc1c(C(F)(F)F)cc(-c2cccs2)nc1SC(C(=O)Nc1cc(C(F)(F)F)cc(C(F)(F)F)c1)c1ccccc1 (stereo unspecified)
- T/C (dose: 50.0 mg/kg/injection, schedule: Q01DX005 (ip), vehicle: Klucel (hydroxypropylcellulose) (HPC)): 106 % of control
- T/C (dose: 100.0 mg/kg/injection, schedule: Q01DX005 (ip), vehicle: Klucel (hydroxypropylcellulose) (HPC)): 88 % of control
- T/C (dose: 200.0 mg/kg/injection, schedule: Q01DX005 (ip), vehicle: Klucel (hydroxypropylcellulose) (HPC)): 90 % of control

Structure (SMILES): O=C1NCCCN1C(=O)Nc1ccc(Cl)c(Cl)c1
- T/C [16]: 101 % of control
- T/C [17]: 91 % of control
- T/C [18]: 95 % of control

Structure (SMILES): COc1ccc(CSC(=S)Nc2ccc(F)cc2F)cc1
- T/C [16]: 99 % of control
- T/C (dose: 50.0 mg/kg/injection, schedule: Q01DX009 (ip), vehicle: suspension in saline): 106 % of control
- T/C [17]: 107 % of control
- T/C (dose: 100.0 mg/kg/injection, schedule: Q01DX009 (ip), vehicle: suspension in saline): 100 % of control
- T/C [18]: 112 % of control
- T/C (dose: 200.0 mg/kg/injection, schedule: Q01DX009 (ip), vehicle: suspension in saline): 98 % of control

Structure (SMILES): NC1=NC(c2ccccc2O)CC(=O)N1 (stereo unspecified)
- T/C [8]: 103 % of control
- T/C [9]: 111 % of control
- T/C [10]: 110 % of control

Structure (SMILES): COc1cc(Br)cc(/C=C/[N+](=O)[O-])c1OC
- T/C [19]: 115 % of control

Structure (SMILES): O=C(O)c1c[nH]c2cc(OCc3ccccc3)ccc2c1=O
- T/C [8]: 99 % of control
- T/C [9]: 98 % of control
- T/C [10]: 103 % of control

Structure (SMILES): CC(=O)O[C@H]1CC[C@]2(C=O)[C@H]3CC[C@]4(C)[C@@H](C5=CC(=O)OC5)CC[C@]4(O)[C@@H]3CC[C@]2(O)C1
- T/C (dose: 12.5 mg/kg/injection, schedule: Q04DX002 (ip), vehicle: saline): 94 % of control
- T/C (dose: 25.0 mg/kg/injection, schedule: Q04DX002 (ip), vehicle: saline): 94 % of control
- T/C (dose: 50.0 mg/kg/injection, schedule: Q04DX002 (ip), vehicle: saline): 100 % of control
- T/C (dose: 100.0 mg/kg/injection, schedule: Q04DX002 (ip), vehicle: saline): 91 % of control

Structure (SMILES): Cc1ccc([N+](=O)[O-])cc1NC(=O)Oc1ccccc1
- T/C [13]: 90 % of control
- T/C [14]: 110 % of control
- T/C [15]: 100 % of control

Structure (SMILES): COc1ccc(OC)c2c1nc(CBr)n2C
- T/C (dose: 16.25 mg/kg/injection, schedule: Q01DX005 (ip), vehicle: DMSO): 104 % of control
- T/C (dose: 32.5 mg/kg/injection, schedule: Q01DX005 (ip), vehicle: DMSO): 93 % of control

Structure (SMILES): Cc1ccc(C)c(NC(=O)Nc2ccc(C(=O)O)c(O)c2)c1
- T/C [16]: 101 % of control
- T/C [17]: 101 % of control
- T/C [18]: 114 % of control

Structure (SMILES): Cc1cc(Cl)ccc1NC(=O)/N=C1\NC(=O)CS1
- T/C [19]: 87 % of control
- T/C [6]: 100 % of control
- T/C [7]: 110 % of control

Structure (SMILES): CC(C)(C)c1ccc(S(=O)(=O)O)cc1
- T/C [8]: 103 % of control
- T/C [9]: 100 % of control
- T/C [10]: 86 % of control

Structure (SMILES): O=[N+]([O-])c1ccc(Nc2ccccc2[N+](=O)[O-])cc1
- T/C (dose: 7.5 mg/kg/injection, schedule: Q01DX009 (ip), vehicle: saline with Tween-80): 94 % of control
- T/C (dose: 15.0 mg/kg/injection, schedule: Q01DX009 (ip), vehicle: saline with Tween-80): 94 % of control
- T/C (dose: 30.0 mg/kg/injection, schedule: Q01DX009 (ip), vehicle: saline with Tween-80): 91 % of control

Structure (SMILES): COc1ccc(CC2C(=O)NC(C)C(=O)N(C)C3Cc4ccc(cc4)Oc4cc(ccc4OC(C)=O)CC(C(=O)NC(C)C(=O)NC(C)C(=O)N2C)N(C)C3=O)cc1 (stereo unspecified)
- T/C (dose: 2.0 mg/kg/injection, schedule: Q01DX009 (ip), vehicle: none): 167 % of control

Structure (SMILES): C=C1[C@@H](O)C[C@@H]2C[C@@]3(C)[C@H](C(C)(C)C[C@@H]3O)C12O (stereo partly specified)
- T/C (dose: 3.75 mg/kg/injection, schedule: Q01DX005 (ip), vehicle: saline): 98 % of control
- T/C (dose: 7.5 mg/kg/injection, schedule: Q01DX005 (ip), vehicle: saline): 100 % of control
- T/C (dose: 15.0 mg/kg/injection, schedule: Q01DX005 (ip), vehicle: saline): 98 % of control

Structure (SMILES): CC(c1ccccc1)C1(C)NC(=O)NC1=O (stereo unspecified)
- T/C [1]: 97 % of control
- T/C [2]: 101 % of control

— PubChem BioAssay AID330 (DTP/NCI, 2004)
